Measured values: paper PMC9607266, “Drug–Drug Interaction Study to Evaluate the Pharmacokinetics, Safety, and Tolerability of Ipatasertib in Combination with Darolutamide in Patients with Advanced Prostate Cancer” (Pharmaceutics, 2022)
Where two headings read alike, the source gives them in different places.

Experiments:
CYP3A4 [1] = settings: cited from earlier work
[2] = cited from earlier work
[3] = Phase Ib DDI study: plasma PK of darolutamide and keto-darolutamide at steady state in combination with ipatasertib; settings: human
Description: This was an open-label, multicenter, Phase Ib study designed to assess the safety, tolerability, and the drug–drug interaction of the combined administration of 400 mg QD oral ipatasertib and 600 mg BID oral darolutamide. […] For this study, no prospective calculations of the statistical power were made; the sample size selected was based on a typical sample size used for DDI studies. […] Figure 1 presents an overview of the study design.
Plasma concentrations of ipatasertib and its metabolite M1 were determined using a previously reported, validated liquid chromatography–tandem mass spectrometry assay (LC-MS/MS). The lower and upper limit of the quantitation for ipatasertib and M1 was 0.500 ng/mL and 400 ng/mL, respectively. Stable labeled internal standards were used for both analytes. Plasma concentrations of darolutamide and keto-darolutamide were determined by a validated bioanalytical assay using supported liquid extraction and LC-MS/MS detection by Labcorp Early Drug Development Laboratories Inc. (Madison, WI, USA). […] The diastereomers of darolutamide, (S, R)-darolutamide, and (S, S)-darolutamide, were quantified as one entity from a single chromatographic peak. The MS/MS transitions monitored for detection were m/z 399.2 to 178.1 for darolutamide, m/z 397.1 to 136.0 for keto-darolutamide, and 478.2 to 221.0 for the internal standard apalutamide. […]

[4] = compared with enzalutamide and apalutamide; cited from earlier work
[5] = cited from earlier work; remark: listed apart in the source
CYP3A4 [6] = settings: in vitro studies; cited from earlier work
[7] = design: method as in PMID 27872130; settings: cited from earlier work
[8] = Phase Ib DDI study: safety and tolerability (adverse events, ECG); assay type: in vivo, human
Text: (§1) Figure 1 presents an overview of the study design.
The primary objectives of the study were to characterize the effect of darolutamide on the PK of ipatasertib and its M1 (G-037720) metabolite when administered alone versus in combination with darolutamide and to evaluate the safety and tolerability of the ipatasertib–darolutamide combination. The PK endpoints of the study were to evaluate the plasma PK parameters of ipatasertib and its M1 metabolite and evaluate the PK of darolutamide and its metabolite keto-darolutamide at a steady state of the combination treatment and compare this to historical data. Medications known to impact the PK of ipatasertib or darolutamide (both CY3PA4 substrates) were refrained from being administered during the study conducted and accordingly not co-administered. The safety endpoints of the study were to evaluate the incidences, nature, and severity of AEs and laboratory abnormalities, changes in vital signs, exposure to the study treatment, and to evaluate the changes in ECG parameters with particular focus on the QT interval corrected through the use of Fridericia’s formula (QTcF). The study achieved the first patient first visit on 21 December 2020, and the cut-off date for primary PK and safety analysis presented within this manuscript was 31 August 2021.
The safety and tolerability assessments consisted of monitoring and recording AEs, including SAEs and AEs of special interest, clinical laboratory assessments, vital signs, a 12 lead ECG, and physical examination. The AEs were recorded from the first admission until the discontinuation of visits. The AE severity was graded from Grade 1 to Grade 5 as per the National Cancer Institute Common Terminology Criteria for Adverse Events version 5.0. The relationship between the AEs and the study drug was indicated as related or not related. The AE terms reported were coded using the standard Medical Dictionary for Regulatory Activities version 24.0’s preferred terms. In order to manage any drug-related toxicities, ipatasertib and darolutamide modifications were specified as follows: An ipatasertib dose could be reduced in decrements of 100 mg up to 200 mg (can be reduced to two dose levels) beyond which the patient must discontinue ipatasertib but may continue treatment with darolutamide. In the case of darolutamide, the dose could be reduced from 600 mg BID to 300 mg BID until symptoms improve. Treatment may then be resumed at a dose of 600 mg, twice daily. A dose reduction below 300 mg BID for darolutamide was not recommended.

[9] = cited from earlier work; remark: listed apart in the source
[10] = Phase Ib DDI study: plasma PK of ipatasertib and M1 after ipatasertib 400 mg QD alone and with darolutamide 600 mg BID; assay type: in vivo; settings: male, human, oral
Description: as §1
Stable labeled internal standards were used for both analytes.
Only median, min, and max were evaluated for Tmax.
Pharmacokinetic parameters (area under the curve (AUC0–tau) and Cmax,ss) were compared between Day 10 of Cycle 1 (ipatasertib alone, as the reference treatment) and Day 28 of Cycle 1 (combination of ipatasertib and darolutamide, as the test treatment) using SAS Version 9.4 by calculating geometric mean ratios and corresponding 90% confidence intervals (CIs) to evaluate the effect of darolutamide on the PK of ipatasertib and M1. A linear mixed model with a fixed effect for treatment and a random effect for patients was used on the natural log-transformed pharmacokinetic parameters. Point estimates for the means and point estimates and corresponding 90% confidence intervals (CIs) for the differences in means between the two treatments (reference and test treatments) were obtained from the linear mixed effects model and then exponentiated to obtain geometric means, geometric mean ratios, and respective 90% CIs on the original scale.

CYP3A4 [11] = tested on: CYP3A4; design: method as in PMID 35428895; settings: PBPK simulations, ipatasertib 400 mg QD; cited from earlier work
[12] = single-agent darolutamide from the literature, geometric mean (%CV)
[13] = itraconazole, strong CYP3A4 and P-gp inhibitor, 100 mg ipatasertib

For `CC(O)c1cc(C(=O)N[C@@H](C)Cn2ccc(-c3ccc(C#N)c(Cl)c3)n2)[nH]n1` (stereo partly drawn) [Darolutamide], the “reduction of midazolam exposures” value (CYP3A4 [1]; concomitant administration of darolutamide and midazolam) is given as ~ 29%, the “time to steady state” value ([2]; 600 mg BID) is given as 2 to 5 days and the “increase in bioavailability when administered with food” value [2] is given as 2.0- to 2.5 fold. For the same compound, the “effective t1/2” value ([2]; in patients) was “approximately 20 h”, the “time at which Cmax is reached” value ([2]; single 600 mg oral dose) was “approximately 4 h” and the “AUC0–t,ss” value [2, 12] was 52.82 (33.9) h·µg/mL. For the same compound, the “Cmax,ss” value [2, 12] was 4.79 (30.9) µg/mL, the “AUC0–12 h,ss” value ([2]; single-agent darolutamide) was 52820 ng·h/mL and the Tmax ([3]; male, plasma, oral) was 4.23 h. For the same compound, the “penetration of the blood–brain barrier” value [4] was “lower penetration of the blood–brain barrier”, the “increase in AUC0–∞ when combined with itraconazole” value ([5]; darolutamide with itraconazole) was 1.7 fold and the “increase in Cmax when combined with itraconazole” value ([5]; darolutamide with itraconazole) was 1.4 fold.

For `CC(C)NC[C@@H](C(=O)N1CCN(c2ncnc3c2[C@H](C)C[C@H]3O)CC1)c1ccc(Cl)cc1` [Ipatasertib], the “CYP3A4 inhibition in vitro” value (CYP3A4 [6]) is given as “time-dependent inhibitor of CYP3A4”, the “increase in midazolam AUC0–∞ exposures” value (CYP3A4 [1]; ipatasertib at 600 mg QD) is given as 2.22 fold and the “human plasma protein binding” value [7] is given as “low”. The “Total number of deaths” value ([8]; N = 14) was 0, the “patients with at least one AE leading to discontinuation of darolutamide” value ([8]; male, human, in vivo) was 0 n (%) and the “patients with at least one AE leading to discontinuation of ipatasertib” value ([8]; male, human, in vivo) was 0 n (%). The “patients with at least one AE leading to dose interruption of darolutamide” value ([8]; male, human, in vivo) was 0 n (%), the “patients with at least one AE leading to dose interruption of ipatasertib” value ([8]; male, human, in vivo) was 0 n (%) and the “patients with at least one AE leading to dose reduction of darolutamide” value ([8]; male, human, in vivo) was 0 n (%). The “patients with at least one AE leading to dose reduction of ipatasertib” value ([8]; male, human, in vivo) was 0 n (%), the “patients with at least one AE related to any treatment” value ([8]; male, human, in vivo) was 1 (7.1) n (%) and the “patients with at least one AE related to darolutamide only” value ([8]; male, human, in vivo) was 0 n (%). The “patients with at least one AE related to ipatasertib only” value ([8]; male, human, in vivo) was 1 (7.1) n (%), the “patients with at least one Grade 5 AE” value ([8]; male, human, in vivo) was 0 n (%) and the “patients with at least one Grade ≥ 3 AE” value ([8]; male, human, in vivo) was 0 n (%). For the same compound, the “patients with at least one Serious AE” value ([8]; male, human, in vivo) was 0 n (%), the “patients with at least one: Any treatment discontinuation” value ([8]; male, human, in vivo) was 0 n (%) and the “patients with diarrhea of Grade 1” value ([8]; male, human, in vivo) was 7.1%. For the same compound, the time to steady-state ([9]; 400 mg QD dose) was ≤ 7 days, the “median time to maximum concentration (Tmax)” value ([9]; across 25–800 mg doses in patients with cancer) was 0.5 to 3 h and the “exposures following a high-fat meal versus fasted conditions” value [9] was “comparable”. For the same compound, the “median half-life (t1/2)” value ([9]; oral doses in the range of 200–800 mg, range 27.8–66.9 h) was 45.0 h, the AUC ([10]; 400 mg, Reference = ipatasertib only, n = 13, linear mixed model, read-out: AUC0–tau,ss, Reference Geometric Mean) was 2610 ng·h/mL and the Cmax ([10]; 400 mg, Reference = ipatasertib only, n = 13, linear mixed model, read-out: Cmax,ss, Reference Geometric Mean) was 452 ng/mL. It also gave a Cmax ([10]; 400 mg, ipatasertib 400 mg QD alone, Cycle 1 Day 10, n = 14, geometric mean (%CV), read-out: Cmax,ss) of 462 ng/mL, an AUC ([10]; 400 mg, ipatasertib 400 mg QD alone, Cycle 1 Day 10, n = 14, geometric mean (%CV), tau = 24 h, mCRPC patients, read-out: AUC0–tau,ss) of 2660 ng·h/mL and an AUC ([10]; Test = ipatasertib with darolutamide, n = 13, linear mixed model, read-out: AUC0–tau,ss, Test Geometric Mean) of 2400 ng·h/mL. The Cmax ([10]; Test = ipatasertib with darolutamide, n = 13, linear mixed model, read-out: Cmax,ss, Test Geometric Mean) was 355 ng/mL, the AUC(0-t) ([10]; ipatasertib 400 mg QD alone, Cycle 1 Day 10, n = 14, geometric mean (%CV)) was 2670 ng·h/mL and the Tmax ([10]; ipatasertib 400 mg QD alone, Cycle 1 Day 10, n = 14, median (min, max)) was 1.04 h. For the same compound, the AUC(0-t) ([10]; ipatasertib 400 mg QD with darolutamide 600 mg BID, Cycle 1 Day 28, n = 13, geometric mean (%CV)) was 2400 ng·h/mL, the Cmax ([10]; ipatasertib 400 mg QD with darolutamide 600 mg BID, Cycle 1 Day 28, n = 13, geometric mean (%CV), read-out: Cmax,ss) was 355 ng/mL and the AUC ([10]; ipatasertib 400 mg QD with darolutamide 600 mg BID, Cycle 1 Day 28, n = 13, geometric mean (%CV), tau = 24 h, read-out: AUC0–tau,ss) was 2400 ng·h/mL. The Tmax ([10]; ipatasertib 400 mg QD with darolutamide 600 mg BID, Cycle 1 Day 28, n = 13, median (min, max)) was 2 h, the “increase in exposures when combined with abiraterone” value ([5]; dedicated drug–drug interaction study) was “approximately 1.5 fold” and the “decrease in ipatasertib exposure when combined with enzalutamide” value ([5]; enzalutamide, strong CYP3A4 inducer) was “approximately 50%”. The “increase in AUC0–∞ when combined with itraconazole” value [5, 13] was 5.45 fold, the “increase in Cmax when combined with itraconazole” value [5, 13] was 2.26 fold and the “expected increase in midazolam exposure (AUC0–∞)” value (CYP3A4 [11]) was “approximately 1.69 fold”.

For `CC(=O)c1cc(C(=O)N[C@@H](C)Cn2ccc(-c3ccc(C#N)c(Cl)c3)n2)[nH]n1` [Keto-darolutamide, keto-darolutamide], the “AUC0–12 h,ss” value ([2]; human, in vivo) is listed as 82800 ng·h/mL, the “AUC0–t,ss” value ([2]; human, in vivo) is listed as 82.8 (39.5) h·µg/mL and the “Cmax,ss” value ([2]; human, in vivo) is listed as 9.4 (35.4) µg/mL. The “effective t1/2” value ([2]; human, in vivo) was “approximately 20 h” and the “Tmax,ss” value ([3]; in vivo) was 4.13 (1.00, 8.25) h.

In the case of `CNC(=O)c1ccc(N2C(=S)N(c3ccc(C#N)c(C(F)(F)F)c3)C(=O)C2(C)C)cc1F` [enzalutamide], the “reduction of midazolam exposures” value (CYP3A4 [1]; midazolam in combination with enzalutamide, strong CYP3A4 inducer) is given as “approximately 85%”.
